Experimental data from patent US20070043108A1, “Use of equol for ameliorating or preventing neuropsychiatric and neurodegenerative diseases or disorders” (priority 2002, published 2007).
Where “and” joins values, the source holds several entries; their conditions need not be identical. Identical values can stand only once.

Assays:
GDX males = assay: Examples 5 and 6: gonadectomized (GDX) male rats treated with DHTP, equol or both; histology; assay type: in vivo, rat
Procedure: One week following arrival, animals are gonadectomized (GDX) under isoflurane anesthesia and allowed to recover for 7 days. Following recovery, animals are assigned to the following groups 1) DMSO, 2) DHTP (2 mg/1 kg), 3) racemic equol (0.25 mg/kg), or 4) both DHTP and racemic equol. Injections are given subcutaneously daily for 4 days. Animals are killed via decapitation and trunk blood and tissues are collected for analysis.
Tissues, including prostate, testes and epididymis, are removed from the animal, dissected free of fat and connective tissues, weighed, fixed by immersion in 4% paraformaldehyde, and then sectioned at 15 μm on a cryostat. Tissue sections are mounted on charged slides (Superfrost Plus, Fisher Scientific, Pittsburgh, Pa.) prewarmed to 23° C., and stained with hematoxylin and eosin (H&E), dehydrated in ascending alcohol and cleared with xylene.

ERα = target: T1, ERα (Rattus norvegicus, UniProt P06211); assay: Competition binding of equol enantiomers with [3H]E2 for in vitro translated ERα
T1 construct: Full length rat ERα expression vector (pcDNA-ERα; RH Price UCSF); made in house; host or cells: TnT-coupled rabbit reticulocyte lysate in vitro translation (Promega)
T1 sequence (P06211 1-600): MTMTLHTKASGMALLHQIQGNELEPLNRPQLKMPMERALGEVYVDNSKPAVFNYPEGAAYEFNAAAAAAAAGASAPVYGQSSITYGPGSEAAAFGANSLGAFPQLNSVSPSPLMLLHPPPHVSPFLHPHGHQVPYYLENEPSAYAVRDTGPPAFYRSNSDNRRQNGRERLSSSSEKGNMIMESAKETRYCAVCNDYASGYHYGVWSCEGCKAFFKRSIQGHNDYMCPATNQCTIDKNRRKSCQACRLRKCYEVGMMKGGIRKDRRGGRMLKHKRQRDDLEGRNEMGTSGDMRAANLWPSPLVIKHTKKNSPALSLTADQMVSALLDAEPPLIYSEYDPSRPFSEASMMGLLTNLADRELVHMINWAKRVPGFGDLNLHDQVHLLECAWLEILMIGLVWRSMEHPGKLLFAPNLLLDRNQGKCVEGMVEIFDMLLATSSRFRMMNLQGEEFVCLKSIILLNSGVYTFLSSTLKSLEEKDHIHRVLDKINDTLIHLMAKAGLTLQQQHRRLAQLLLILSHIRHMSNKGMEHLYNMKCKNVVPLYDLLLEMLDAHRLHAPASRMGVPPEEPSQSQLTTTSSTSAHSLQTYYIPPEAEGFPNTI
Procedure: (§1) In vitro binding studies were performed to examine the relative affinities of S— and R-enantiomeric equol with the estrogen receptors ERα and ERβ.
(§2) Synthesis of Hormone Receptor Proteins: Full length rat ERα expression vector (pcDNA-ERα; RH Price UCSF) and ERβ expression vector (pcDNA-ERβ; T A Brown, Pfizer, Groton, […].) were used to synthesize hormone receptors in vitro using the TnT-coupled reticulocyte lysate system (Promega, Madison, Wis.) with T7-RNA polymerase, during a 90 min reaction at 30° C. Translation reaction mixtures were stored at −80° C. until further use.
(§3) Saturation isotherms: In order to calculate and establish the binding affinity of the S-equol and R-equol enantiomers for ERα and ERβ, 100 μL aliquots of reticulocyte lysate supernatant were incubated at optimal time and temperature; 90 min at room temperature (ERβ) and 18 hrs at 4° C. (ERα), with increasing (0.01-100 nm) concentrations of [3H] […] These times were determined empirically and represent optimal binding of receptor with estrogen. Nonspecific binding was assessed using a 300-fold excess of the ER agonist diethylstilbestrol, in parallel tubes. Following incubation, bound and unbound [3H]E2 were separated by passing the incubation reaction through a 1 mL lipophilic Sephadex LH-20 (Sigma-Aldrich Co., Saint Louis, Mo.) column Columns were constructed by packing a disposable pipette tip (1 mL; Labcraft, Curtin Matheson Scientific, Inc, Houston, Tex.) with TEGMD (10 mm Tris-Cl, 1.5 mm EDTA, 10% glycerol, 25 mm molybdate, and 1 mm dithiothreitol, pH 7.4)-saturated Sephadex according to previously published protocols (Wanda et al., 1986; O'Keefe and Handa, 1990). For chromatography, the columns were re-equilibrated with TEGMD (100 μL), and the incubation reactions were added individually to each column and allowed to incubate on the column for an additional 30 min. Following this incubation, 600 μL of TEGMD were added to each column, flow-through was collected, 4 mL scintillation fluid was added, and samples were counted (5 min each) in an 2900 TR Packard scintillation counter (Packard Bioscience, Meriden, Conn.).
(§4) Competition binding studies were used to assess the estrogenic properties of equol's S-equol and R-equol enantiomers. Based on the ability of S and R to compete with [3H]

ERβ = target: T2, ERβ (Rattus norvegicus, UniProt Q62986); assay: Competition binding of equol enantiomers with [3H]E2 for in vitro translated ERβ
T2 construct: Full length rat ERα expression vector (pcDNA-ERα; RH Price UCSF) and ERβ expression vector (pcDNA-ERβ; T A Brown, Pfizer; made in house; host or cells: TnT-coupled rabbit reticulocyte lysate in vitro translation (Promega)
Procedure: as §1, §2, §3, §4

AR = target: T3, AR (Rattus norvegicus, UniProt P15207); assay: Binding to the androgen receptor (prostate supernatant, [3H]DHT)
T3 construct: incubated with prostate supernatant and then passed through the 30 cm column; from tissue; host or cells: prostate supernatant
T3 sequence (P15207 1-902): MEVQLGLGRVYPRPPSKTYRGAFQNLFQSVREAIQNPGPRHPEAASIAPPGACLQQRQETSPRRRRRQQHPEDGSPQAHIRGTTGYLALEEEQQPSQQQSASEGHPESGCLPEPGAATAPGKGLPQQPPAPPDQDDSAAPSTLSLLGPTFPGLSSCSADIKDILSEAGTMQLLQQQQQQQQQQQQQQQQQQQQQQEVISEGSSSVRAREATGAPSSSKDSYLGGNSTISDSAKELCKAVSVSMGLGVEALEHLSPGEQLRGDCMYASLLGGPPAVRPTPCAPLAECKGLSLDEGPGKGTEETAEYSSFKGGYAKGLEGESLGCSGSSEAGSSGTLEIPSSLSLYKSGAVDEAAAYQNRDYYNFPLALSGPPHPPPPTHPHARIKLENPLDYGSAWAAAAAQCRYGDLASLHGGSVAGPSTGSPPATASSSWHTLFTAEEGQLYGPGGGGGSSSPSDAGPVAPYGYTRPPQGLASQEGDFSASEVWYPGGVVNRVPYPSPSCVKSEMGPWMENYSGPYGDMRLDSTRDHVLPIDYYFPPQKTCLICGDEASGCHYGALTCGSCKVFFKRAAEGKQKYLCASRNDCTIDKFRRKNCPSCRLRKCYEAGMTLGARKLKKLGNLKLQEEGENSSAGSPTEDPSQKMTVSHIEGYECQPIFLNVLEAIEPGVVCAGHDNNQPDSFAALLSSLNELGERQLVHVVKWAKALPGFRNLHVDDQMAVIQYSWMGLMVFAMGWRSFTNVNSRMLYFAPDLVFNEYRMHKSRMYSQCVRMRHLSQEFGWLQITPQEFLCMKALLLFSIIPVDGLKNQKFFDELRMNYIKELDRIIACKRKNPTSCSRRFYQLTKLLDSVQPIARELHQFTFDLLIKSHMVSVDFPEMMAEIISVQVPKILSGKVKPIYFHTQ

[1] = tested on: Adult male Sprague-Dawley rats; assay: Example 3: prostate, epididymis and body weight gain in male rats treated with racemic, R- or S-equol; assay type: in vivo, rat; conditions: 0.25 mg/kg/day sc, seven days
Procedure: Adult male Sprague-Dawley rats are randomly assigned to […] groups and receive daily injections of either DMSO, a racemic mixture of equol at 0.250 mg/kg/day), R-equol at 0.250 mg/kg/day, or S-equol at 0.250 mg/kg/day. The total volume of each injection is 0.3 cc, administered sc at the nape of the rat's neck. After seven consecutive days of treatment, the rats are killed and the body weight gain during the injection period is determined.

[2] = tested on: Adult male Sprague-Dawley rats; assay: Example 15: elevated plus maze of equol injected male rats; assay type: in vivo, rat; conditions: 0.250 mg/Kg/day sc, seven days, n = 8
From the text: The elevated plus maze is a behavioral test used to quantify anxiety-related behavior and identify anxiolytic drugs (Pellow S. et al., J Neurosci Methods, 14:149-147 (1985); Current Protocols In Neuroscience (1997) 8.3.1-8.3.15, John Wiley & Sons. NY, N.Y.). The test relies on the inherent conflict between exploration of a novel environment and avoidance of its aversive features. Normally, animals spend little time and make few entries into the open arms of the maze compared to the closed arms of the maze (Imhof J. T. et al., Behav Brain Res, 56:177-180 (1993). However, animals treated with anxiolytics, such as benzodiazepines (valium), spend more time in the open arms and the number of entries into the open arms reflects a decrease in anxiety-related behaviors (Pellow S. et al., J Neurosci Methods, 14:149-147 (1985); Current Protocols In Neuroscience (1997) 8.3.1-8.3.15, John Wiley & Sons. NY, N.Y.; Chopin P. et al., Psychopharm, 110:409-414 (1993).
Adult male Sprague-Dawley rats receive daily injections of either DMSO, racemic equol (0.250 mg/Kg/day), R-equol (0.250 mg/Kg/day), or S-equol (0.250 mg/Kg/day) in a total volume of 0.3 cc DMSO by subcutaneous injection. At the end of seven consecutive days of treatment the animals are tested in the elevated plus maze in order to quantify anxiety-related behaviors.

[3] = tested on: Long-Evans rats, male offspring; assay: Example 19: elevated plus maze of adult male offspring after pre- and early postnatal treatment; assay type: in vivo, rat
Procedure: Pregnant Long-Evans rats were treated via daily subcutaneous injections from gestational day 14 through 20 and during lactation from postnatal day 2 through 25 with: 1) control-DMSO vehicle or, 2) genistein@ 3 mg/day or 3) equol@ 3 mg/day according to the treatment groups. All animals were fed a phytoestrogen-low diet throughout these studies (10 ppm isoflavones). There were no significant differences in maternal body weights just before birth among the treatment groups. […] The maternal and male offspring genistein and equol levels @ 25 days post birth) paralleled that of the treatments administered.
At approximately 90 days of age the male offspring were tested by treatments (control, genistein and equol) in the EPM that was video-taped for 3 minutes and later recorded for the number of entries into—and the percentage of total time spent—on the open arms, as previously described. […] Equol time intervals were 2-fold greater than genistein values and genistein levels were approximately 9-fold greater than controls.

[4] = competition with [3H]E2, in vitro translated ER
[5] = 3 mg/day sc to dams, offspring tested at about 90 days

T2 sequence (Q62986 whole entry): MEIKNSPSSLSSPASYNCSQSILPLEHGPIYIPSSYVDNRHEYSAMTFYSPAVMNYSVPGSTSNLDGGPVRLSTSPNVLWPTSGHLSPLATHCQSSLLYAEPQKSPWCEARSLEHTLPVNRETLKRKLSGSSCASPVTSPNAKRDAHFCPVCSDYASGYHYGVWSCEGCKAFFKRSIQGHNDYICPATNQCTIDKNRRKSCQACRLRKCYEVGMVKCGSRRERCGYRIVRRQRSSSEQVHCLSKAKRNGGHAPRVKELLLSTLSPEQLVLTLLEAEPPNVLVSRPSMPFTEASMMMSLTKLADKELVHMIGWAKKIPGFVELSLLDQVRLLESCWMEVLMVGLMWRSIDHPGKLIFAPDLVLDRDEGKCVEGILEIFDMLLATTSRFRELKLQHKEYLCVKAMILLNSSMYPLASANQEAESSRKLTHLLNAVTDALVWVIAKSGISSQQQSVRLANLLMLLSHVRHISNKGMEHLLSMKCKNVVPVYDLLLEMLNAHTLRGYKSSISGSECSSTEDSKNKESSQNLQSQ

CCC(=O)O[C@H]1CC[C@H]2[C@@H]3CC[C@H]4CC(=O)CC[C@]4(C)[C@H]3CC[C@]12C [DHTP, DHT propionate, reference compound]
LH (GDX males; GDX males, given alone, vs DMSO): significantly decreased | prostate weight (GDX males; GDX males, given alone, vs vehicle-treated GDX): significant increase | plasma 5α-DHT (GDX males; GDX, DHTP 2 mg/kg sc daily for 4 days): significant elevations

Oc1ccc([C@H]2COc3cc(O)ccc3C2)cc1 [S-equol]
relative binding affinity for ERα compared with 17β-estradiol, fold less (ERα): 49.2 fold and 49 fold | Kd (ERα; [4]): 6.41 ± 1.01 nM | affinity for ERβ, fold less (ERβ): approximately 5 fold | binding to ERβ relative to that of 17β-estradiol (ERβ): approximately 20% | Kd (ERβ; as stated in the background section): 0.7 nM | Kd (ERβ; [4]): 0.73 ± 0.2 nM | binding to the androgen receptor (AR): does not bind the androgen receptor | Body Wt Gain (g) [1]: 56.1 (±3.1) g | Epididymis (g) [1]: 0.86 (±0.05) g | Prostate (g) [1]: 0.35 (±0.03) g | Center Area [2]: 27.5 ± 4.1 s | Open Arm Time [2]: 33.6 ± 7.0 s

O=c1c(-c2ccc(O)cc2)coc2cc(O)cc(O)c12 [genistein]
body weights at birth vs controls ([3]; 3 mg/day sc to dams from gestational day 14): slightly (but not significantly) higher | entries into the open arms vs controls [3, 5]: not significantly different | time in the open arms vs controls [3, 5]: significantly greater | open arm time intervals, fold greater than controls ([3]; offspring tested at about 90 days): approximately 9 fold
